These results are taken from patent US20260232835A1, “AFFIBODY MICELLE DRUG CONJUGATE” (KOWA COMPANY, LTD., priority 2022, published 2026).

As a reminder, the IC50 is the concentration that inhibits the measured activity by half.

The subject of test [1] is human breast cancer cell line MDA-MB-468. Kind of test: Cytotoxic test (CellTiter-Glo cell viability), MDA-MB-468. Type of test: cell-based. The settings on record: Table 8, cultured for 4 days, read-out: IC50 HER2-negative MDA-MB-468. (Cellular ATP, detected with luciferase, serves as a proxy for viable cell number.)
Description: (§1) The mertansine (DM1) (Cayman CHEMICAL) was dissolved in dimethyl sulfoxide (DMSO: FUJIFILM Wako Pure Chemical Corporation) to prepare DM1 solutions of 60 μmol/L, 20 μmol/L, 6.7 μmol/L, 2.2 μmol/L, 0.74 μmol/L, 0.25 μmol/L, 0.082 μmol/L, and 0.027 μmol/L. Next, after a dilution series of 60 nmol/L, 20 nmol/L, 6.7 nmol/L, 2.2 nmol/L, 0.74 nmol/L, 0.25 nmol/L, 0.082 nmol/L, and 0.027 nmol/L were created by respectively diluting these solutions with RPMI1640 (hereinafter, RPMI1640 medium) containing 10% fetal bovine serum (Merck KGaA), these solutions were respectively added to a cell culture microplate in equal amounts to a cell culture liquid, and diluted to 1/2, thereby evaluating the cytotoxic effects thereof at a final DM1 concentration of 30 nmol/L, 10 nmol/L, 3.3 nmol/L, 1.1 nmol/L, 0.37 nmol/L, 0.12 nmol/L, 0.041 nmol/L, or 0.014 nmol/L.
(§2) A HER2 antigen-positive human gastric cancer cell line HCC-1954 (American Type Culture Collection) or a HER2 antigen-negative human breast cancer cell line MDA-MB-468 (American Type Culture Collection) was adjusted to a cell concentration of 2.0×10^4 cells/mL with the RPMI1640 medium, and 100 μL each was added to the 96 well microplate for cell culture and cultured overnight. […] The light emission amount was then measured with the plate reader (Molecular Devices, LLC.). The cell viability was calculated by the following equation. […]
The test system of test [2] is HER2 antigen-positive human cancer cell line HCC-1954. Kind of test: Cytotoxic test (CellTiter-Glo cell viability), HCC-1954. It is filed as cell-based. The settings on record: cultured for 4 days.
Description: as §1, §2
Test [3] relates to mouse colon cancer cell line C26. In words: Drug efficacy test in cancer-carrying nude mice with subcutaneously transplanted C26. It is filed as in vivo. The settings on record: after 14 days from administration; tail vein, 3 times every other day; DACHPt-encapsulating SCNP 3 mg/kg in terms of Pt, oxaliplatin solution 8 mg/kg (3.9 mg/kg in terms of Pt). The procedure:
Cancer-carrying models obtained by subcutaneously transplanting a mouse colon cancer cell line C26 (American Type Culture Collection) into female nude mice (BALB/c-nu/nu, 7 weeks old; Charles River Laboratories Japan, Inc.) were used for the drug efficacy test.
The mouse colon cancer cell line C26 subcultured in a CO2 incubator was suspended in a liquid medium (Dulbecco's Modified Eagle's Medium-high glucose, Sigma-Aldrich), and injected subcutaneously in the back of each of the nude mice such that the number of cells per mouse was 1×106/100 μL. Then, the nude mice were raised for about 1 week, and then administration of the agent was started when an average value of tumor volumes was grown to about 30 mm^3. The DACHPt-encapsulating SCNP (DACHPt-encapsulating SCNP prepared using the copolymer of Example 70) was administered through the tail veins of the mice (3 times every other day), and antitumor effects were evaluated based on the tumor volumes (4 to 5 mice per 1 group). As a comparison, an oxaliplatin solution (Comparative Example 1) was used, and the oxaliplatin solution was administered in the same manner. The dose of each preparation was 8 mg/kg (3.9 mg/kg in terms of Pt) as the maximum administrable dose for the oxaliplatin solution, and 3 mg/kg in terms of Pt for the DACHPt-encapsulating SCNP. […]

For `COc1cc2cc(c1Cl)N(C)C(=O)C[C@H](OC(=O)[C@H](C)N(C)C(=O)CCS)[C@]1(C)O[C@H]1[C@H](C)[C@@H]1C[C@@](O)(NC(=O)O1)[C@H](OC)/C=C/C=C(\C)C2` [Comparative example 2, mertansine, reference compound], the IC50 in test [1] turned out to be 0.41 nM; in test [2], 0.11 nM.
For the compound `O=C1[O][Pt]2([NH][C@@H]3CCCC[C@H]3[NH]2)[O]C1=O` [oxaliplatin solution, oxaliplatin], the “T/C: ratio of the tumor volume of the drug administration group (T) to that of the control group (C)” value in test [3] is 1.1.
